IC50 data for 8 compounds are collected here from patent US7632861B2, “Substituted heterocyclic ethers and their use in CNS disorders” (Bristol-Myers Squibb Company, priority 2007, dated 2009).

The structures appear in SMILES notation.

As usually defined, the IC50 is the concentration at which inhibition is half-maximal.

One assay addresses T1, NK-1 (Homo sapiens, UniProt P25103).
T1 construct: endogenous in cells; host or cells: U373 cells (crude membranes)
Briefly: NK1 radioligand binding assay ([125I]Substance P, U373 cell membranes). As to conditions: 1 hour at room temperature. On the procedure:
(§1) NK-1 Binding assay. Crude membrane suspensions were prepared for the NK1 and SERT radioligand binding assays from U373 cells or recombinant HEK-293 cells expressing hSERT, respectively. Cells were harvested from T-175 flasks as follows. The medium is removed from the flasks and the cells rinsed with HBSS without Ca and without Mg. The cells are then incubated for 5-10 minutes in 10 mM Tris-Cl, pH 7.5, 5 mM EDTA before the cells are lifted with a combination of pipetting and scraping, as needed. To prepare membranes, the cell suspension is collected into centrifuge bottles and homogenized for 30 seconds with a Polytron homogenizer. The suspension is centrifuged for 30 min @ 32,000×g, 4° C., then the supernatant is decanted and the pellet resuspended and homogenized in 50 mM Tris-Cl, pH 7.5, 1 mM EDTA for 10 seconds. The suspension is then centrifuged again for 30 min @ 32,000×g, 4° C. The supernatant is decanted and the pellet resuspended in 50 mM Tris-Cl, pH 7.5, 1 mM EDTA and briefly homogenized. A Bradford assay (Bio-rad) is performed and the membrane preparation diluted to 2 mg/ml with 50 mM Tris-Cl, pH 7.5, 1 mM EDTA. Aliquots are prepared, and then frozen and stored at −80° C.
NK1 radioligand binding assay. Compounds are dissolved in 100% DMSO at a concentration 100× the desired highest assay concentration, serially diluted 1:3 in 100% DMSO, and 0.6 ul/well of each solution is dispensed to a Nunc polypropylene, round bottom, 384 well plate. 100% inhibition is defined with 0.6 ul/well of 1 mM L-733,060 (Sigma L-137) dissolved in DMSO. 30 ul/well of a 2×U373 membrane preparation (267 ug/ml in 100 mM Tris-Cl, pH 7.5, 6 mM MgCl2, 0.2% (v/v) Sigma mammalian protease inhibitor cocktail (Sigma P-8340), and 4 ug/ml chymostatin, Sigma C-7268) and 30 ul/well of a 2×radioligand solution (400 pM [^125I]Substance P (Perkin Elmer NEX-190) in 1% (w/v) BSA (Sigma A-2153), 0.1 mg/ml bacitracin, Sigma B-0125) are added to the well and the reaction incubated for 1 hour at room temperature. The contents of the assay plate are then transferred to a Millipore MultiscreenHTS GF/B filter plate which has been pretreated with 0.5% PEI for at least one hour. The plate is vacuum filtered and washed with 7 washes of 100 ul/well of 20 mM Tris-Cl, pH 7.5, 0.5% (w/v) BSA chilled to 4° C. The filtration and washing is completed in less than 90 s. The plates are air-dried overnight, 12 ul/well of MicroScint scintillation fluid added, and the plates counted in a Trilux.
(§2) Data analysis. The raw data are normalized to percent inhibition using control wells defining 0% (DMSO only) and 100% (selective inhibitor) inhibition which are run on each plate. Each plate is run in triplicate, and the concentration response curve thus generated is fit using the four-parameter dose response equation, Y=Bottom+(Top-Bottom)/(1+10^((LogIC50-X)*HillSlope)) in order to determine the IC50 value for each compound. The radioligand concentration chosen for each assay corresponds to the Kd concentration determined through saturation binding analysis for each assay.

In the next assay the target is T2, hSERT (Homo sapiens, UniProt P31645).
T2 construct: expressed in transfected cells; host or cells: HEK-293 cells (crude membranes)
Briefly: SERT radioligand binding assay ([125I]RTI-55, HEK-hSERT membranes). The conditions noted are these: [125I]RTI-55, 1 hour at room temperature. How it is done: as §1
SERT radioligand binding assay. Compounds are dissolved in 100% DMSO at a concentration 100× the desired highest assay concentration, serially diluted 1:3 in 100% DMSO, and 0.4 ul/well of each solution is dispensed to a Nunc polypropylene, round bottom, 384 well plate. 100% inhibition is defined with 0.4 ul/well of 1 mM fluoxetine (Sigma F-132) dissolved in DMSO. 20 ul/well of a 2×HEK-hSERT membrane preparation (15 ug/ml in 50 mM Tris-Cl, pH 7.5, 120 mM NaCl, 5 mM KCl) and 20 ul/well of a 2×radioligand solution (520 pM [^125I]RTI-55 (Perkin-Elmer NEX-272) in 50 mM Tris-Cl, pH 7.5, 120 mM NaCl, 5 mM KCl) are added to each well and the reaction incubated for 1 hour at room temperature. The contents of the assay plate are then transferred to a Millipore MultiscreenHTS GF/B filter plate which has been pretreated with 0.5% PEI for at least one hour. The plate is vacuum filtered and washed with 7 washes of 100 ul/well of 50 mM Tris-Cl, pH 7.5, 120 mM NaCl, 5 mM KCl chilled to 4° C. The filtration and washing is completed in less than 90 s. The plates are air-dried overnight, 12 ul/well of MicroScint scintillation fluid added, and the plates counted in a Trilux.
as §2

T2 sequence (P31645 whole entry): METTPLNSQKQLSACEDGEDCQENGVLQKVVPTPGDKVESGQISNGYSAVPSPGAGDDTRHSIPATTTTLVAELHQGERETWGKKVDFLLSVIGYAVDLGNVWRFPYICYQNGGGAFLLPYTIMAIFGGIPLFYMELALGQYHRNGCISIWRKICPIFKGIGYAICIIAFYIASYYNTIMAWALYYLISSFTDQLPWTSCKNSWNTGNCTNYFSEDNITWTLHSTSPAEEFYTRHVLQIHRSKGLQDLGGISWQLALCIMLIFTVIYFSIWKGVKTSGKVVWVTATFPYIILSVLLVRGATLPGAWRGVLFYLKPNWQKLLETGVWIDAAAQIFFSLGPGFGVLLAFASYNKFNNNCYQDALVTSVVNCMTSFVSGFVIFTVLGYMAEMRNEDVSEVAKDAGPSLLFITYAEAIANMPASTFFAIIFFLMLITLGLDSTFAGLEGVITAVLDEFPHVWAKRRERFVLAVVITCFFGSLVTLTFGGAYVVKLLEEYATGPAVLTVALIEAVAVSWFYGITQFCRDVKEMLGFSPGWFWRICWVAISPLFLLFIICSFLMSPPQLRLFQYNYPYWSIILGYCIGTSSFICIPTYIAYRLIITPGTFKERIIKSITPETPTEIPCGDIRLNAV
T1 sequence (P25103 whole entry): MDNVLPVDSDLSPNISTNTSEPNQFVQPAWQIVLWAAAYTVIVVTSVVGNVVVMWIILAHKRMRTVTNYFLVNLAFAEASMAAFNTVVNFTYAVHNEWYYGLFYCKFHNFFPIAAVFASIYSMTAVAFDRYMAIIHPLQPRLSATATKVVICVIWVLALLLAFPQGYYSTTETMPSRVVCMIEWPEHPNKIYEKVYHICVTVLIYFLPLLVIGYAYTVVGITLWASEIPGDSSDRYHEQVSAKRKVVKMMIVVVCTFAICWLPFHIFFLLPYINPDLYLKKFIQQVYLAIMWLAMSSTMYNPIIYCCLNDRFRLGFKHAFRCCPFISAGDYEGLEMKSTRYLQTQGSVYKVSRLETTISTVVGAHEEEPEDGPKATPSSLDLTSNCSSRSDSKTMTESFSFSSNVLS

With `CN(C)CCC1(COCc2cc(N3CCOCC3)cc(C(F)(F)F)c2)OCc2ccccc21` (stereo not shown) [Example 20, N,N-dimethyl-2-(1-((3-morpholino-5-(trifluoromethyl)benzyloxy)methyl)-1,3-dihydroisobenzofuran-1-yl)ethanamine], the half-inhibitory concentration (IC50) at NK-1 and at hSERT was 0.01 to 100 nM in each case.

In the case of `CN(C)CCC1(COCc2cc(Cl)cc(-c3ccc(C#N)cc3)c2)OCc2ccccc21` (stereo not shown) [Example 33], the concentration for half-maximal inhibition (IC50) on NK-1 and on hSERT was 0.01 to 100 nM throughout.

For `CN(C)CCC1(COCc2cc(-c3ccncc3)cc(C(F)(F)F)c2)OCc2cc(C#N)ccc21` (stereo not shown) [Example 26], the concentration for half-maximal inhibition (IC50) on NK-1 was 100 to 300 nM; on hSERT, more than 300 nM.

Consider `CN(C)CCC1(COCc2cc(-c3ccc(C#N)cc3)cc(C(F)(F)F)c2)OCc2cc(C#N)ccc21` (stereo not shown) [Example 25], for which the results for the IC50 at NK-1 and on hSERT were 0.01 to 100 nM and more than 300 nM, respectively.

`CN(C)CCC1(COCc2cc(C(F)(F)F)cc(C(F)(F)F)c2)OCCc2ccccc21` (stereo not shown) [Example 40, 2-(1-((3,5-Bis(trifluoromethyl)benzyloxy)methyl)isochroman-1-yl)-N,N-dimethylethanamine]: the IC50 at NK-1 and at hSERT was 0.01 to 100 nM each time.

As to `CC(OCC1(CCN)OCc2ccccc21)c1cc(C(F)(F)F)cc(C(F)(F)F)c1` (stereo not shown) [Example 30], the figures for the IC50 on NK-1 and at hSERT were 0.01 to 100 nM and more than 300 nM, respectively.

Take `N#Cc1ccc(-c2cc(COCC3(CCN)OCc4ccccc43)cc(C(F)(F)F)c2)cc1` (stereo not shown) [Example 2, 3′-(((1-(2-aminoethyl)-1,3-dihydroisobenzofuran-1-yl)methoxy)methyl)-5′-(trifluoromethyl)biphenyl-4-carbonitrile]: the IC50 fell in the range of 0.01 to 100 nM at NK-1 and 100 to 300 nM at hSERT.

Regarding `CN(C)CCC1(COCc2cc(Br)cc(C(F)(F)F)c2)OCc2cc(C#N)ccc21` (stereo not shown) [Example 22], the IC50 on NK-1 was 0.01 to 100 nM; at hSERT it was more than 300 nM.
